In patent US6596772B1, “Phosphate mimics and methods of treatment using phosphatase inhibitors” (Sugen, Inc., priority 1999, dated 2003):
Like-named read-outs stand apart in the source and are kept apart here.

Key:
Assay in all cases: PTP IC50 assay, fluorescent substrate DiFMUP
Assay type in all cases: biochemical
[1] = target: T1, PTP SHP2 (Homo sapiens, UniProt Q06124); details: DiFMUP as substrate, 25° C.; read-out: PTP IC50 SHP2
T1 construct: The catalytic domain was amplified using the following oligonucleotides; made in house; host or cells: Sf-9 insect cells (pFastBac-G2T)
T1 sequence (Q06124 247-517 limits assumed): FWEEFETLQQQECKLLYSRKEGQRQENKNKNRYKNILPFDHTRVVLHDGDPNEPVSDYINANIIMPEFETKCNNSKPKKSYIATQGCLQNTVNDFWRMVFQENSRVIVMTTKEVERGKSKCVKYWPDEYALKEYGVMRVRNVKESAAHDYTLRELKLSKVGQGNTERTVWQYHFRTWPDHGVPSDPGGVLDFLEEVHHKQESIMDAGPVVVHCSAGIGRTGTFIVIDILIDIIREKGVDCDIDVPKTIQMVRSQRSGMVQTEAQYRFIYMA
Description: SHP-2 cDNA was used as described earlier (Vogel W., et al.,1993, Science, 259:1611-4). The catalytic domain was amplified using the following oligonucleotides 5′oligo: 5′-[…]-3′ (SEQ ID NO: 2) 3′oligo: 5′-[…]-3′ (SEQ ID NO: 3) and subsequently subcloned into BamH1-Xba-1 sites. It was then ligated into pfas Bac-G2T BamH1-Xba-1 sites.
(§1) The following in vitro assay procedure is preferred to determine the level of activity and effect of the different compounds of the present invention on one or more of the PTPs. Similar assays can be designed along the same lines for any PTP using techniques well known in the art.
(§2) The catalytic assays described herein are performed in a 96-well format. The general procedure begins with the determination of PTP optimal pH using a three-component buffer system that minimizes ionic strength variations across a wide range of buffer pH. Next, the Michaelis-Menten constant, or Km, is determined for the substrate 6,8-difluoro-4-methylumbelliferyl phosphate (DiFMUP). This Km value is subsequently used as the substrate reaction concentration for compound screening. Finally, the test PTP is exposed to varying concentrations of compound for fifteen minutes and allowed to react with substrate for ten minutes. The results are plotted as percent inhibition versus compound concentration and the IC50 interpolated from the plot.
(§3) All assays were performed using DiFMUP as substrate. The optimum pH and substrate Km was determined for each PTP used.
(§4) PTPase activity was assayed at 25° C. in a 100-μl reaction mixture containing an appropriate concentration of DiFMUP as substrate. The reaction was initiated by addition of the purified PTP and quenched after 10 min by addition of 1% H2O2/100 mM NaCl. The non-enzymatic hydrolysis of the substrate was corrected by measuring the control without the addition of the enzyme. The amount of DiFMU produced was determined from the increase in the fluorescence (360 nm excitation/460 nm emission) over that of background in the absence of PTPase. To determine the kinetic parameter, Km, the initial velocities were measured at various substrate concentrations and the data were fitted to the Michaelis equation where velocity=(Vmax*[S])/(Km+[S]), and [S]=substrate reaction concentration.
(§5) The effect of the compounds on PTP was evaluated at 25° C. using DiFMUP as substrate. PTP was pre-incubated for fifteen minutes with various concentrations of compound. Substrate was then added at a fixed concentration (usually equal to the Km previously calculated). After 10 minutes, the reaction was quenched. The hydrolysis of DiFMUP was followed as described above. The percent inhibition was calculated as follows: Percent Inhibition=[(control signal−compound signal)/control signal]×100%. The IC50 was then determined by interpolation of a percent inhibition versus compound concentration plot.
(§6) Plasmids designed for bacterial GST-PTP fusion protein expression were derived by insertion of PCR-generated human PTP fragments into pGEX vectors (Pharmacia Biotech). Several of these constructs were then used to subclone phosphatases into pFastBac-1 for expression in Sf-9 insect cells. Oligonucleotides used for the initial amplification of PTP genes are as described above. The cDNAs were prepared using the Gilbo BRL superscript preamplification system on RNAs purchased from Clontech.

[2] = target: T2, PTP 1B (Homo sapiens, UniProt P18031)
T2 construct: made in house; host or cells: Sf-9 insect cells (pFastBac-G2T)
T2 sequence (P18031 1-435): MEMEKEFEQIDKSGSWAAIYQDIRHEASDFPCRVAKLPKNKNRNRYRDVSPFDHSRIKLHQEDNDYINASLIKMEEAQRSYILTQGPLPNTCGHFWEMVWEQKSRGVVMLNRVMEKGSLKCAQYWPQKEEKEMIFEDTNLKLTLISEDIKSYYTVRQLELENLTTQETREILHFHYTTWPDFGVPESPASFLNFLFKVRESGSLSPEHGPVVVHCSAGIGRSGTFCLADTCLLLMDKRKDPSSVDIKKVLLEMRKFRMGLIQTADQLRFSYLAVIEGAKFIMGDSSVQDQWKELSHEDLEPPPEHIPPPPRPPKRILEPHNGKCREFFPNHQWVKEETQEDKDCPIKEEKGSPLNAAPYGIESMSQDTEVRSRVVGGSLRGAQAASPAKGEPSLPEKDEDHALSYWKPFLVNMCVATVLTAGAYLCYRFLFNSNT
Description: The PTP1b cDNA was amplified from human placenta single strand cDNA (Clontech RNA) using the following oligonucleotides: 5′oligo: 5′-[…] (SEQ ID NO: 4) 3′oligo: 5′-[…] (SEQ ID NO: 5) It was subsequently ligated into pFasBac G2TBamH1Xba-1 sites.
as §1, §2, §3, §4, §5, §6

[3] = target: T3, PTP EPSILON (Homo sapiens, UniProt P23469)
T3 construct: made in house; host or cells: Sf-9 insect cells (pFastBac-G2T); a pGEX 6P-1 construct also existed
T3 sequence (P23469 80-393 limits assumed): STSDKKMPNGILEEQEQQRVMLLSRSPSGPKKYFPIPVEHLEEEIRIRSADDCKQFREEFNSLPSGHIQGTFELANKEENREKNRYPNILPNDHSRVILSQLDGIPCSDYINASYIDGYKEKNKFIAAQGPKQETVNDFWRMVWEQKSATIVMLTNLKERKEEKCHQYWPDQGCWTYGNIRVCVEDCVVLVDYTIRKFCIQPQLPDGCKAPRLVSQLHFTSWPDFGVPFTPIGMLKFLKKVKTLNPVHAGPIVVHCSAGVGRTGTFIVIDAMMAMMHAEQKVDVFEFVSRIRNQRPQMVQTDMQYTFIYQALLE
Description: The PTPepsilon cDNA was amplified from human placenta single-strand cDNA (Clontech RNA) using the following oligonucleotides: 5′oligo: 5′-[…]-3′ (SEQ ID NO: 6) 3′oligo: 5′-[…]-3′ (SEQ ID NO: 7) After cloning this PCR product into the Bam HI/Xho I sites of pGEX 6P-1, this phosphatase was subcloned using the same restriction sites in pFastBac-G2T.
as §1, §2, §3, §4, §5, §6

[4] = DiFMUP as substrate, 25° C., read-out: PTP IC50 1B
[5] = DiFMUP as substrate, 25° C., read-out: PTP IC50 Epilson

Row | Compound | IC50 [1] [µM] | IC50 [2, 4] [µM] | IC50 [3, 5] [µM] | IC50 [2] [µM] | IC50 [3] [µM]
1 | O=C(Cc1ccccc1CC(=O)Nc1ccc(S(=O)(=O)C(F)(F)F)cc1)Nc1ccc(S(=O)(=O)C(F)(F)F)cc1 [Example 32, N-(4-Trifluoromethanesulfonyl-phenyl)-2-{2-[(4-trifluoromethanesulfonyl-phenylcarbamoyl)-methyl]-phenyl}-acetamide] | 14.6 | 7.8 | 17.4 |  | 
2 | CCn1c(-c2ccc(C(=O)OC)cc2)nc2cc(S(=O)(=O)C(F)(F)F)ccc21 [Example 35, 4-(1-Ethyl-5-trifluoromethanesulfonyl-1H-benzoimidazol-2-yl)-benzoic acid methyl ester] | 31.6 |  | 32.5 |  | 
3 | CCn1c(-c2ccc(C(=O)O)cc2)nc2cc(S(=O)(=O)C(F)(F)F)ccc21 [Example 36, 4-(1-Ethyl-5-trifluoromethanesulfonyl-1H-benzoimidazol-2-yl)-benzoic acid] | 58 | > 20 | 61.2 |  | 
4 | CCn1c(-c2ccc(C(=O)Nc3ccncc3)cc2)nc2cc(S(=O)(=O)C(F)(F)F)ccc21 [Example 37, 4-(1-Ethyl-5-trifluoromethanesulfonyl-1H-benzoimidazol-2-yl)-N-pyridin-4-yl-benzamide] | 19 | > 20 | 20.5 |  | 
5 | CCOC(=O)CNC(=O)C(c1ccc(S(=O)(=O)C(F)(F)F)cc1)N(C)C(C)=O (centres unmarked) [Example 47, [2-(Acetyl-methyl-amino)-2-(4-trifluoromethanesulfonyl-phenyl)-acetylamino]-acetic acid ethyl ester] | > 100 |  |  |  | 
6 | CCOC(=O)CNC(=O)C(c1ccc(S(=O)(=O)C(F)(F)F)cc1)N(C(=O)c1ccccc1)C1CCCCC1 (centres unmarked) [Example 48, [2-(Benzoyl-cyclohexyl-amino)-2-(4-trifluoromethanesulfonyl-phenyl)-acetylamino]-acetic acid ethyl ester] | 37.7 | 22.7 |  |  | 
7 | O=[N+]([O-])c1cc(S(=O)(=O)C(F)(F)F)ccc1OCC(CN1CCCCC1)Oc1ccc(S(=O)(=O)C(F)(F)F)cc1[N+](=O)[O-] (centres unmarked) [Example 55, 1-[2,3-Bis-(2-nitro-4-trifluoromethanesulfonyl-phenoxy)-propyl]-piperidine] | 3.3 |  | 2.4 |  | 
8 | O=[N+]([O-])c1ccccc1NCC(COc1ccc(S(=O)(=O)C(F)(F)F)cc1[N+](=O)[O-])Oc1ccc(S(=O)(=O)C(F)(F)F)cc1[N+](=O)[O-] (centres unmarked) [Example 57, [2,3-Bis-(2-nitro-4-trifluoromethanesulfonyl-phenoxy)-propyl]-(2-nitro-phenyl)-amine] |  |  |  | > 20 | 0.6
9 | O=S(=O)(c1ccc(-c2ncc(-c3ccc4ccccc4c3)o2)cc1)C(F)F [Example 64, 2-[4-(Difluoro-methanesulfonyl)-phenyl]-5-naphthalen-2-yl-oxazole] | 5.9 | 5.4 |  |  | 
10 | Cc1ccc(Nc2ccc(S(=O)(=O)C(F)(F)C(F)F)cc2[N+](=O)[O-])cc1 [Example 65, [2-Nitro-4-(1,1,2,2-tetrafluoro-ethanesulfonyl)-phenyl]-p-tolyl-amine] | 13.1 | 11.5 |  |  | 
11 | Cc1cc2cc(NS(=O)(=O)C(F)(F)F)ccc2n1CC(=O)Nc1ccc(C(=O)O)cc1 [Example 85, 4-[2-(2-Methyl-5-trifluoromethanesulfonylamino-indol-1-yl)-acetylamino]-benzoic acid] |  | 17.4 | > 20 |  | 

Further compounds by falling IC50 [1], results first:

Row | IC50 [1] [µM] | IC50 [2, 4] [µM] | IC50 [3, 5] [µM] | Compound | IC50 [2] [µM] | IC50 [3] [µM]
12 | 2.9 | 4.8 |  | O=[N+]([O-])c1cc(S(=O)(=O)C(F)(F)F)ccc1OCC(CN1CCOCC1)Oc1ccc(S(=O)(=O)C(F)(F)F)cc1[N+](=O)[O-] (centres unmarked) [Example 56, 4-[2,3-Bis-(2-nitro-4-trifluoromethanesulfonyl-phenoxy)-propyl]-morpholine] |  | 
13 | 2.3 | 2.3 | 20.4 | O=C(Cc1cccc(CC(=O)Nc2ccc(S(=O)(=O)C(F)(F)F)cc2)c1)Nc1ccc(S(=O)(=O)C(F)(F)F)cc1 [Example 33, N-(4-Trifluoromethanesulfonyl-phenyl)-2-{3-[(4-trifluoromethanesulfonyl-phenylcarbamoyl)-methyl]-phenyl}-acetamide] |  | 
14 | 2.3 | 3.9 | 9.1 | O=C(Cc1ccc(CC(=O)Nc2ccc(S(=O)(=O)C(F)(F)F)cc2)cc1)Nc1ccc(S(=O)(=O)C(F)(F)F)cc1 [Example 34, N-(4-Trifluoromethanesulfonyl-phenyl)-2-{4-[(4-trifluoromethanesulfonyl-phenylcarbamoyl)-methyl]-phenyl}-acetamide] |  | 
15 | 2.3 |  | 5.7 | NS(=O)(=O)c1ccc(NCC(COc2ccc(S(=O)(=O)C(F)(F)F)cc2[N+](=O)[O-])Oc2ccc(S(=O)(=O)C(F)(F)F)cc2[N+](=O)[O-])cc1 (centres unmarked) [Example 62, 4-[2,3-Bis-(2-nitro-4-trifluoromethanesulfonyl-phenoxy)-propylamino]-benzenesulfonamide] |  | 
16 | 1.7 |  | 7.4 | NS(=O)(=O)c1ccc(NCC(O)COc2ccc(S(=O)(=O)C(F)(F)F)cc2[N+](=O)[O-])cc1 (centres unmarked) [Example 61, 4-[2-Hydroxy-3-(2-nitro-4-trifluoromethanesulfonyl-phenoxy)-propylamino]-benzenesulfonamide] |  | 
17 | 1.1 | 1.1 | 5.1 | CCn1c(-c2ccc(C(=O)Nc3ccc(OC)cc3)cc2)nc2cc(S(=O)(=O)C(F)(F)F)ccc21 [Example 38, 4-(1-Ethyl-5-trifluoromethanesulfonyl-1H-benzoimidazol-2-yl)-N-(4-methoxy-phenyl)-benzamide] |  | 
18 | 0.7 | > 20 |  | CCOC(=O)c1cc(Oc2ccc(S(=O)(=O)C(F)(F)F)cc2[N+](=O)[O-])c(C(=O)OCC)cc1Oc1ccc(S(=O)(=O)C(F)(F)F)cc1[N+](=O)[O-] [Example 54, 2,5-Bis-(2-nitro-4-trifluoromethanesulfonyl-phenoxy)-terephthalic acid diethyl ester] |  | 
